Assay [1] concerns the target T1, human RORγt (Ligand Binding Domain) (Homo sapiens, UniProt P51449).
T1 construct: purchased Crelux (Planegg, Germany) batch no PC5032-1
T1 sequence (P51449 269-508 limits assumed): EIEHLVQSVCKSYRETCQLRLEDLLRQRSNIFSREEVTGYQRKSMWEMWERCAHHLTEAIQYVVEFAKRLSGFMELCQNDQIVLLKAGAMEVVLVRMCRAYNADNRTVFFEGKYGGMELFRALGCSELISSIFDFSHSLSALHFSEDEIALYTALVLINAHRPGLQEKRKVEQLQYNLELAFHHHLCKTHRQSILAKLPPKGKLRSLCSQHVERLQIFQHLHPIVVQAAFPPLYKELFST
Description: Fluorescence Polarization (FP) Assay. As to conditions: Fluorescence Polarization (FP) Assay; values given as upper bounds of activity ranges; read-out: FP activity range. In a few lines:
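In vitro FP binding assay monitoring ligand binding within the ligand binding pocket. Probe is a TAMRA-labelled RORγt ligand (MW 910 g/mole); DMSO served as negative control.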
In general terms: Fluorescence polarisation rises when a labelled molecule tumbles more slowly, as on binding a larger partner.

The target in assay [2] is T2, yeast Gal4-DNA binding domain fused to the ligand binding domain of human RORγ (Homo sapiens, UniProt P51449).
T2 construct: host or cells: HEK293t
T2 sequence (P51449 269-508 limits assumed): T1 sequence (P51449 269-508 limits assumed)
Description: RORγ Reporter Assay (Gal4). It is filed as cell-based. As to conditions: values given as lower bounds of ranges; for Gal4 activity range @ 0.1 μM (% inhibition): RORγ Reporter Assay (Gal4) at 0.1 μM; for Gal4 activity range @ 1 μM (% inhibition): RORγ Reporter Assay (Gal4) at 1 μM. In short, it runs like this:
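HEK293t reporter cells expressing the hybrid, with Gal4-UAS-driven firefly luciferase, treated in triplicate with compound at 1,000 nM and 100 nM (0.1% DMSO) in medium with 10% charcoal-stripped FBS for 24 h at 37 °C. Luminescence read; percent reduction of RLU calculated relative to vehicle.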
(Reporter assays use an easily measured gene product as a stand-in for the process of interest.)

Regarding `COc1cc(CNc2ncnc(N3CCCC3c3ccc(C(F)(F)F)cc3)c2F)ccn1` (stereo not drawn) [Example 113, 5-fluoro-N-[(2-methoxy-4-pyridyl)methyl]-6-[2-[4-(trifluoromethyl)phenyl]pyrrolidin-1-yl]pyrimidin-4-amine], in assay [1], the IC50 is less than 500 nM. In assay [2], the “Gal4 activity range @ 0.1 μM (% inhibition)” value was more than 50 % inhibition and the “Gal4 activity range @ 1 μM (% inhibition)” value was more than 80 % inhibition.
Regarding `COc1ccc(CNc2ncnc(N3CCCC3c3ccc(C(F)(F)F)cc3)c2F)cn1` (stereo not drawn) [Example 114, 5-fluoro-N-[(6-methoxy-3-pyridyl)methyl]-6-[2-[4-(trifluoromethyl)phenyl]pyrrolidin-1-yl]pyrimidin-4-amine], the IC50 in assay [1] is less than 1000 nM. In assay [2], the “Gal4 activity range @ 0.1 μM (% inhibition)” value is more than 20 % inhibition and the “Gal4 activity range @ 1 μM (% inhibition)” value is listed as more than 80 % inhibition.
In the case of `Fc1c(NCc2ccc(Cn3cncn3)cc2)ncnc1N1CCCC1c1ccc(C(F)(F)F)cc1` (stereo not drawn) [Example 115, 5-fluoro-N-[[4-(1,2,4-triazol-1-ylmethyl)phenyl]methyl]-6-[2-[4-(trifluoromethyl)phenyl]pyrrolidin-1-yl]pyrimidin-4-amine], the IC50 in assay [1] is less than 500 nM. In assay [2], the “Gal4 activity range @ 0.1 μM (% inhibition)” value is reported as more than 50 % inhibition and the “Gal4 activity range @ 1 μM (% inhibition)” value is more than 80 % inhibition.
For `COc1ccc(CN(C)c2ncnc(N3CCCC3c3ccc(C(F)(F)F)cc3)c2F)cn1` (stereo not drawn) [Example 116, 5-fluoro-N-[(6-methoxy-3-pyridyl)methyl]-N-methyl-6-[2-[4-(trifluoromethyl)phenyl]pyrrolidin-1-yl]pyrimidin-4-amine], in that order: less than 1000 nM, more than 20 % inhibition and more than 50 % inhibition.
The like results for `O=C(O)Cc1ccc(CNc2ncnc(N3CCC[C@H]3c3ccc(C(F)(F)F)cc3)c2F)cc1` [Example 118, 2-[4-[[[5-fluoro-6-[(2S)-2-[4-(trifluoromethyl)phenyl]pyrrolidin-1-yl]pyrimidin-4-yl]amino]methyl]phenyl]acetic acid] were, in that order, less than 10000 nM, more than 0 % inhibition and more than 20 % inhibition.
For `O=C(O)Cc1ccc(CNc2ncnc(N3CCOCC3c3ccc(C(F)(F)F)cc3)c2F)cc1` (stereo not drawn) [Example 119, 2-[4-[[[5-fluoro-6-[3-[4-(trifluoromethyl)phenyl]morpholin-4-yl]pyrimidin-4-yl]amino]methyl]phenyl]acetic acid], in that order: less than 1000 nM, more than 20 % inhibition and more than 80 % inhibition.
Turning to `CC(C)CC(Nc1ncnc(N2CCCC2c2ccc(C(F)(F)F)cc2)c1F)c1nnn[nH]1` (stereo not drawn) [Example 123, 5-fluoro-N-[3-methyl-1-(1H-tetrazol-5-yl)butyl]-6-[2-[4-(trifluoromethyl)phenyl]pyrrolidin-1-yl]pyrimidin-4-amine], in assay [1], the IC50 is less than 10000 nM. In assay [2], the “Gal4 activity range @ 0.1 μM (% inhibition)” value was more than 0 % inhibition and the “Gal4 activity range @ 1 μM (% inhibition)” value was more than 20 % inhibition.
On to `Fc1c(NCc2ccc(C(F)(F)F)nc2)ncnc1N1CCCC1c1ccc(C(F)(F)F)cc1` (stereo not drawn) [Example 126, 5-fluoro-6-[2-[4-(trifluoromethyl)phenyl]pyrrolidin-1-yl]-N-[[6-(trifluoromethyl)-3-pyridyl]methyl]pyrimidin-4-amine], for which, in assay [1], the IC50 was less than 2000 nM. In assay [2], the “Gal4 activity range @ 0.1 μM (% inhibition)” value is on record as more than 20 % inhibition and the “Gal4 activity range @ 1 μM (% inhibition)” value is recorded as more than 50 % inhibition.
`OCCc1ccc(CNc2ncnc(N3CCCC3c3ccc(C(F)(F)F)cc3)c2F)cc1` (stereo not drawn) [Example 128, 2-[4-[[[5-fluoro-6-[2-[4-(trifluoromethyl)phenyl]pyrrolidin-1-yl]pyrimidin-4-yl]amino]methyl]phenyl]ethanol]: the IC50 in assay [1] was less than 500 nM. Also, the “Gal4 activity range @ 0.1 μM (% inhibition)” value in assay [2] is listed as more than 50 % inhibition.
The like results for `OC1(CNc2ncnc(N3CCCC3c3ccc(C(F)(F)F)cc3)c2F)CCOCC1` (stereo not drawn) [Example 129, 4-[[[5-fluoro-6-[2-[4-(trifluoromethyl)phenyl]pyrrolidin-1-yl]pyrimidin-4-yl]amino]methyl]tetrahydropyran-4-ol] were, in that order, less than 500 nM and more than 50 % inhibition.
`COc1ccnc(CNc2ncnc(N3CCCC3c3ccc(C(F)(F)F)cc3)c2F)c1` (stereo not drawn) [Example 131, 5-fluoro-N-[(4-methoxy-2-pyridyl)methyl]-6-[2-[4-(trifluoromethyl)phenyl]pyrrolidin-1-yl]pyrimidin-4-amine]: the IC50 in assay [1] is less than 2000 nM. Besides, the “Gal4 activity range @ 0.1 μM (% inhibition)” value in assay [2] is more than 20 % inhibition.
For `Fc1c(NCc2ccncc2)ncnc1N1CCCC1c1ccc(C(F)(F)F)cc1` (stereo not drawn) [Example 140, 5-fluoro-N-(4-pyridylmethyl)-6-[2-[4-(trifluoromethyl)phenyl]pyrrolidin-1-yl]pyrimidin-4-amine], in that order: less than 500 nM and more than 20 % inhibition.
For the compound `O=C(O)CC1CCC(CNc2ncnc(N3CCCC3c3ccc(C(F)(F)F)cc3)c2F)CC1` (stereo not drawn) [Example 148, 2-[4-[[[5-fluoro-6-[2-[4-(trifluoromethyl)phenyl]pyrrolidin-1-yl]pyrimidin-4-yl]amino]methyl]cyclohexyl]acetic acid], in assay [1], the IC50 is less than 1000 nM. Also, the “Gal4 activity range @ 0.1 μM (% inhibition)” value in assay [2] is reported as more than 50 % inhibition.
The like results for `CC1(CNc2ncnc(N3CCCC3c3ccc(C(F)(F)F)cc3)c2F)CCC1` (stereo not drawn) [Example 152, 5-fluoro-N-[(1-methylcyclobutyl)methyl]-6-[2-[4-(trifluoromethyl)phenyl]pyrrolidin-1-yl]pyrimidin-4-amine] were, in that order, less than 500 nM and more than 0 % inhibition.
Regarding `CC1(CNc2ncnc(N3CCC[C@@H]3c3ccc(C(F)(F)F)cc3)c2F)CCOCC1` [Example 161, 5-fluoro-N-[(4-methyltetrahydropyran-4-yl)methyl]-6-[(2R)-2-[4-(trifluoromethyl)phenyl]pyrrolidin-1-yl]pyrimidin-4-amine], the IC50 in assay [1] is less than 500 nM. The “Gal4 activity range @ 0.1 μM (% inhibition)” value in assay [2] is on record as more than 20 % inhibition.
With `Fc1c(NCC2CCSCC2)ncnc1N1CCC[C@@H]1c1ccc(C(F)(F)F)cc1` [Example 164, 5-fluoro-N-(tetrahydrothiopyran-4-ylmethyl)-6-[(2R)-2-[4-(trifluoromethyl)phenyl]pyrrolidin-1-yl]pyrimidin-4-amine], in assay [1], the IC50 is less than 500 nM. For the same compound, the “Gal4 activity range @ 0.1 μM (% inhibition)” value in assay [2] was more than 20 % inhibition.
The like results for `OC1(CNc2ncnc(N3CCC[C@@H]3c3ccc(C(F)(F)F)cc3)c2F)CCSC1` (stereo partly drawn) [Example 165, 3-[[[5-fluoro-6-[(2R)-2-[4-(trifluoromethyl)phenyl]pyrrolidin-1-yl]pyrimidin-4-yl]amino]methyl]tetrahydrothiophen-3-ol] were, in that order, less than 500 nM and more than 50 % inhibition.
The like results for `OC1(CNc2ncnc(N3CCC[C@@H]3c3ccc(C(F)(F)F)cc3)c2F)CCCCCC1` [Example 167, 1-[[[5-fluoro-6-[(2R)-2-[4-(trifluoromethyl)phenyl]pyrrolidin-1-yl]pyrimidin-4-yl]amino]methyl]cycloheptanol] were, in that order, less than 500 nM and more than 0 % inhibition.
For `COC1CCCCC1CNc1ncnc(N2CCC[C@@H]2c2ccc(C(F)(F)F)cc2)c1F` (stereo partly drawn) [Example 168, 5-fluoro-N-[(2-methoxycyclohexyl)methyl]-6-[(2R)-2-[4-(trifluoromethyl)phenyl]pyrrolidin-1-yl]pyrimidin-4-amine], in that order: less than 500 nM and more than 50 % inhibition.
Regarding `OC1(CNc2ncnc(N3CCC[C@@H]3c3ccc(C(F)(F)F)cc3)c2F)CCSCC1` [Example 169, 4-[[[5-fluoro-6-[(2R)-2-[4-(trifluoromethyl)phenyl]pyrrolidin-1-yl]pyrimidin-4-yl]amino]methyl]tetrahydrothiopyran-4-o1], the IC50 in assay [1] was less than 500 nM. For the same compound, the “Gal4 activity range @ 0.1 μM (% inhibition)” value in assay [2] is on record as more than 0 % inhibition.
For `NS(=O)(=O)c1ccc(CNc2ncnc(N3CCC[C@@H]3c3ccc(C(F)(F)F)cc3)c2F)cc1` [Example 182, 4-[[[5-fluoro-6-[(2R)-2-[4-(trifluoromethyl)phenyl]pyrrolidin-1-yl]pyrimidin-4-yl]amino]methyl]benzenesulfonamide], in that order: less than 500 nM and more than 50 % inhibition.
For `Fc1c(NCc2ccc(Cl)nc2)ncnc1N1CCC[C@@H]1c1ccc(C(F)(F)F)cc1` [Example 183, N-[(6-chloro-3-pyridyl)methyl]-5-fluoro-6-[(2R)-2-[4-(trifluoromethyl)phenyl]pyrrolidin-1-yl]pyrimidin-4-amine], in that order: less than 500 nM and more than 50 % inhibition.
The like results for `Fc1c(NCc2ccsc2)ncnc1N1CCC[C@@H]1c1ccc(C(F)(F)F)cc1` [Example 185, 5-fluoro-N-(3-thienylmethyl)-6-[(2R)-2-[4-(trifluoromethyl)phenyl]pyrrolidin-1-yl]pyrimidin-4-amine] were, in that order, less than 1000 nM and more than 50 % inhibition.

The values are drawn from patent publication US10689383B2, “Optionally fused heterocyclyl-substituted derivatives of pyrimidine useful for the treatment of inflammatory, metabolic, oncologic and autoimmune diseases” (NUEVOLUTION A/S, priority 2014, dated 2020).
